Measured values taken from PubChem BioAssay AID652273 (Sanford-Burnham Center for Chemical Genomics, 2013).
Active and inactive are the calls of the source.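 Rule for the calls: active = compounds lowering heat-shock reporter fluorescence with mean IC50 at or below 15 µM, flagged as SKN-1 screen artifacts; inactive = the rest.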

Tested on: C. elegans VP596 hsp-16.2 GFP/RFP after heat shock
Assay: hsp-16.2 heat-shock reporter inhibition in nematodes, SAR follow-up, counter-screen for SKN-1 inhibitor project, whole organism, C. elegans VP596, GFP/RFP ratio, round 2 (AID 652273)

Question: For `CCOc1cc(CNC2CCCC2)cc(Cl)c1OCc1ccc(Cl)cc1F`, which IC50 is on record?
Answer: > 64 µM (inactive)

Question: `CCOc1cc(CNC2CCCC2)cc(Cl)c1OCc1ccc(Br)cc1` was tested. Which IC50 did it give?
Answer: > 64 µM (inactive)

Question: Which IC50 does the source give for `CCOc1cc(CNCC2CC2)cc(Cl)c1OCc1ccc(Cl)cc1` here?
Answer: > 64 µM (inactive)

Question: For `CCOc1cc(CN2CCCCC2)cc(Cl)c1OCc1ccc(Cl)cc1`, which IC50 is on record?
Answer: > 64 µM (inactive)

Question: For `CCOc1cc(CNC2CC2)cc(Cl)c1OCc1ccc(Br)cc1`, which IC50 is on record?
Answer: > 64 µM (inactive)

Question: How did the IC50 turn out when `Clc1ccc(COc2c(Cl)cc(CNC3CCCC3)cc2Cl)cc1` was run?
Answer: > 64 µM (inactive)

Question: Which IC50 does the source give for `COc1cc(CNC2CCCC2)cc(Br)c1OCc1ccc(Cl)cc1` here?
Answer: > 64 µM (inactive)

Question: With `COc1cc(CNC2CCCC2)cc(F)c1OCc1ccc(Cl)cc1` as the compound, how does the IC50 read?
Answer: > 64 µM (inactive)

Question: How did the IC50 turn out when `CCOc1cc(CN(C(C)=O)C2CCCC2)cc(Cl)c1OCc1ccc(Cl)cc1` was run?
Answer: > 64 µM (inactive)

Question: How did the IC50 turn out when `C#CCNCc1cc(Cl)c(OCc2ccc(Cl)cc2)c(OCC)c1` was run?
Answer: > 64 µM (inactive)

Question: How did the IC50 turn out when `CCOc1cc(CN2CCN(C)CC2)cc(Cl)c1OCc1ccc(Cl)cc1` was run?
Answer: > 64 µM (inactive)

Question: For `CCOc1cc(CNC2CC2)cc(Cl)c1OCc1ccc(C#N)cc1`, which IC50 is on record?
Answer: > 64 µM (inactive)

Question: Which IC50 does the source give for `CCOc1cc(CN2CCOCC2)cc(Cl)c1OCc1ccc(Cl)cc1` here?
Answer: > 64 µM (inactive)

Question: `COc1cc(CNC2CCCC2)cc(Cl)c1OCc1ccc(Cl)cc1` was tested. Which IC50 did it give?
Answer: > 64 µM (inactive)

Question: Which IC50 does the source give for `CCOc1cc(CNC)cc(Cl)c1OCc1ccc(Cl)cc1` here?
Answer: > 64 µM (inactive)

Question: With `CCOc1cc(CN2CCCCC2)cc(Cl)c1OCc1ccc(F)cc1` as the compound, how does the IC50 read?
Answer: > 64 µM (inactive)

Question: How did the IC50 turn out when `C=CCNCc1cc(Cl)c(OCc2ccc(Cl)cc2)c(OCC)c1` was run?
Answer: > 64 µM (inactive)

Question: With `CCOc1cc(CNC2CC2)cc(Cl)c1OCc1ccc(Cl)cc1F` as the compound, how does the IC50 read?
Answer: > 64 µM (inactive)

Question: How did the IC50 turn out when `CCOc1cc(CNC2CC2)cc(Cl)c1OCc1ccc(Cl)cc1` was run?
Answer: > 64 µM (inactive)

Question: `CCOc1cc(CN2CCCC2)cc(Cl)c1OCc1ccc(F)cc1` was tested. Which IC50 did it give?
Answer: > 64 µM (inactive)

Question: `CCOc1cc(CNC2CCCC2)cc(Cl)c1OCc1ccc(C#N)cc1` was tested. Which IC50 did it give?
Answer: > 64 µM (inactive)

Question: With `CCOc1cc(CN2CCCC2)cc(Cl)c1OCc1ccc(Cl)cc1` as the compound, how does the IC50 read?
Answer: > 64 µM (inactive)

Question: With `CCOc1cc(CN2CCN(C)CC2)cc(Cl)c1OCc1ccc(F)cc1` as the compound, how does the IC50 read?
Answer: > 64 µM (inactive)

Question: Which IC50 does the source give for `CCCNCc1cc(Cl)c(OCc2ccc(Cl)cc2)c(OCC)c1` here?
Answer: > 64 µM (inactive)

Question: `Cc1cc(CNC2CCCC2)cc(C)c1OCc1ccc(Cl)cc1` was tested. Which IC50 did it give?
Answer: > 64 µM (inactive)

Question: `CCOc1cc(CN(C)C2CCCC2)cc(Cl)c1OCc1ccc(Cl)cc1` was tested. Which IC50 did it give?
Answer: > 64 µM (inactive)

Question: Which IC50 does the source give for `CCOc1cc(CN2CCOCC2)cc(Cl)c1OCc1ccc(F)cc1` here?
Answer: > 64 µM (inactive)
